In patent publication US10014546B2 (priority 2012, dated 2018):
Where two headings read alike, the source gives them in different places.

Columns and labels:
[1] = assay type: physicochemical

## O.O.O.O.O.O.[Fe+3] [Fe^III/II(H2O)6, reference compound]
[1]; pH 0
  E1/2, V vs. RHE: +0.77 V vs. RHE

## Oc1cccc2c1[O][Ti-2]13([O]2)([O]c2cccc(O)c2[O]1)[O]c1cccc(O)c1[O]3.[K+].[Na+] [Ti(pyrogallate)^2−/3−, Sodium potassium titanium(IV) trispyrogallate]
[1]; pH 9.8
  E1/2, V vs. RHE: −0.55 V vs. RHE

## CC(O)C(=O)[O-].CC(O)C(=O)[O-].O=C([O-])c1ccccc1O.[Ti+3] [Ti^IV/III(lactate)2(salicylate), titanium bis-lactate mono-salicylate]
physchem
  solubility: ≥ 1500 mM

## Sodium titanium(IV) triscitrate [Ti(citrate)3^2−/3−]
[1]; pH 5
  E1/2, V vs. RHE: −0.04 V vs. RHE

## iron tris-(α-hydroxyacetate) [Fe^III/II(α-hydroxyacetate)3]
[1]; pH 8.1
  E1/2, V vs. RHE: −0.50 V vs. RHE

## iron tris-malate [Fe^III/II(malate)3]
[1]; pH 9.2
  E1/2, V vs. RHE: −0.30 V vs. RHE

## titanium bis-lactate [Ti^IV/III(lactate)2]
[1]; pH 2
  E1/2, V vs. RHE: −0.03 V vs. RHE
[1]; pH 3.6
  E1/2, V vs. RHE: −0.40 V vs. RHE
[1]; pH 9
  E1/2, V vs. RHE: −0.40 V vs. RHE

## titanium mono-lactate [Ti^IV/III(lactate)1]
[1]; pH 3.6
  E1/2, V vs. RHE: −0.34 V vs. RHE
[1]; pH 5.6
  E1/2, V vs. RHE: −0.40 V vs. RHE
[1]; pH 9
  E1/2, V vs. RHE: −0.54 V vs. RHE
